From the NIST ThermoML archive (doi:10.1021/je8008073)
Numbers after ± are expanded uncertainties.

Assay: wn = mass fraction of the nth substance listed
Settings: Liquid; for mass density: Vibrating tube method; for viscosity: Falling or rolling sphere viscometry

CC(C)Cc1ccccc1 [(2-methylpropyl)benzene] + CCCCCCCCCCCC
mass density (293.15 K, 100 kPa, w2 = 0.5): 795.4 ± 1 kg/m3 | mass density (293.15 K, 2000 kPa, w2 = 0.5): 796.7 ± 1 kg/m3 | mass density (293.15 K, 4000 kPa, w2 = 0.5): 798.1 ± 1 kg/m3 | mass density (293.15 K, 6000 kPa, w2 = 0.5): 799.5 ± 1 kg/m3 | mass density (293.15 K, 8000 kPa, w2 = 0.5): 801.1 ± 1 kg/m3 | mass density (293.15 K, 10000 kPa, w2 = 0.5): 802.5 ± 1 kg/m3 | mass density (293.15 K, 12000 kPa, w2 = 0.5): 803.7 ± 1 kg/m3 | mass density (293.15 K, 14000 kPa, w2 = 0.5): 805 ± 1 kg/m3 | mass density (293.15 K, 16000 kPa, w2 = 0.5): 806.3 ± 1.1 kg/m3 | mass density (293.15 K, 18000 kPa, w2 = 0.5): 807.6 ± 1.1 kg/m3 | mass density (293.15 K, 20000 kPa, w2 = 0.5): 808.9 ± 1.1 kg/m3 | mass density (295.65 K, 100 kPa, w2 = 0.5): 793.6 ± 1 kg/m3 | mass density (295.65 K, 2000 kPa, w2 = 0.5): 794.9 ± 1 kg/m3 | mass density (295.65 K, 4000 kPa, w2 = 0.5): 796.3 ± 1 kg/m3 | mass density (295.65 K, 6000 kPa, w2 = 0.5): 797.7 ± 1 kg/m3 | mass density (295.65 K, 8000 kPa, w2 = 0.5): 799.1 ± 1 kg/m3 | mass density (295.65 K, 10000 kPa, w2 = 0.5): 800.5 ± 1 kg/m3 | mass density (295.65 K, 12000 kPa, w2 = 0.5): 801.8 ± 1 kg/m3 | mass density (295.65 K, 14000 kPa, w2 = 0.5): 803.1 ± 1.1 kg/m3 | mass density (295.65 K, 16000 kPa, w2 = 0.5): 804.3 ± 1.1 kg/m3 | mass density (295.65 K, 18000 kPa, w2 = 0.5): 805.6 ± 1.1 kg/m3 | mass density (295.65 K, 20000 kPa, w2 = 0.5): 806.8 ± 1.1 kg/m3 | viscosity (298.15 K, 100 kPa, w2 = 0.5): 1.09 ± 0.05 mPa·s | mass density (298.15 K, 100 kPa, w1 = 0.48): 789.5 ± 1 kg/m3 | mass density (298.15 K, 100 kPa, w1 = 0.49): 790.4 ± 1 kg/m3 | mass density (298.15 K, 100 kPa, w1 = 0.5): 791.7 ± 1 kg/m3 | mass density (298.15 K, 100 kPa, w1 = 0.51): 792.7 ± 1 kg/m3 | mass density (298.15 K, 100 kPa, w1 = 0.52): 793.6 ± 1 kg/m3 | mass density (298.15 K, 100 kPa, w2 = 0.5): 791.7 ± 1 kg/m3 | mass density (298.15 K, 2000 kPa, w1 = 0.48): 790.9 ± 1 kg/m3 | mass density (298.15 K, 2000 kPa, w1 = 0.49): 792 ± 1 kg/m3 | mass density (298.15 K, 2000 kPa, w1 = 0.5): 793.1 ± 1 kg/m3 | mass density (298.15 K, 2000 kPa, w1 = 0.51): 794.1 ± 1 kg/m3 | mass density (298.15 K, 2000 kPa, w1 = 0.52): 795.2 ± 1 kg/m3 | mass density (298.15 K, 2000 kPa, w2 = 0.5): 793.1 ± 1 kg/m3 | viscosity (298.15 K, 4000 kPa, w2 = 0.5): 1.14 ± 0.05 mPa·s | mass density (298.15 K, 4000 kPa, w1 = 0.48): 792.4 ± 1 kg/m3 | mass density (298.15 K, 4000 kPa, w1 = 0.49): 793.5 ± 1 kg/m3 | mass density (298.15 K, 4000 kPa, w1 = 0.5): 794.5 ± 1 kg/m3 | mass density (298.15 K, 4000 kPa, w1 = 0.51): 795.7 ± 1 kg/m3 | mass density (298.15 K, 4000 kPa, w1 = 0.52): 796.6 ± 1 kg/m3 | mass density (298.15 K, 4000 kPa, w2 = 0.5): 794.5 ± 1 kg/m3 | mass density (298.15 K, 6000 kPa, w1 = 0.48): 793.9 ± 1 kg/m3 | mass density (298.15 K, 6000 kPa, w1 = 0.49): 794.9 ± 1 kg/m3 | mass density (298.15 K, 6000 kPa, w1 = 0.5): 795.9 ± 1 kg/m3 | mass density (298.15 K, 6000 kPa, w1 = 0.51): 797 ± 1 kg/m3 | mass density (298.15 K, 6000 kPa, w1 = 0.52): 797.9 ± 1 kg/m3 | mass density (298.15 K, 6000 kPa, w2 = 0.5): 795.9 ± 1 kg/m3 | mass density (298.15 K, 8000 kPa, w1 = 0.48): 795.3 ± 1 kg/m3 | mass density (298.15 K, 8000 kPa, w1 = 0.49): 796.3 ± 1 kg/m3 | mass density (298.15 K, 8000 kPa, w1 = 0.5): 797.3 ± 1 kg/m3 | mass density (298.15 K, 8000 kPa, w1 = 0.51): 798.4 ± 1 kg/m3 | mass density (298.15 K, 8000 kPa, w1 = 0.52): 799.3 ± 1 kg/m3 | mass density (298.15 K, 8000 kPa, w2 = 0.5): 797.3 ± 1 kg/m3 | viscosity (298.15 K, 10000 kPa, w2 = 0.5): 1.22 ± 0.05 mPa·s | mass density (298.15 K, 10000 kPa, w1 = 0.48): 796.6 ± 1 kg/m3 | mass density (298.15 K, 10000 kPa, w1 = 0.49): 797.4 ± 1 kg/m3 | mass density (298.15 K, 10000 kPa, w1 = 0.5): 798.6 ± 1 kg/m3 | mass density (298.15 K, 10000 kPa, w1 = 0.51): 799.7 ± 1 kg/m3 | mass density (298.15 K, 10000 kPa, w1 = 0.52): 800.6 ± 1 kg/m3 | mass density (298.15 K, 10000 kPa, w2 = 0.5): 798.6 ± 1 kg/m3 | mass density (298.15 K, 12000 kPa, w1 = 0.48): 797.9 ± 1 kg/m3 | mass density (298.15 K, 12000 kPa, w1 = 0.49): 798.7 ± 1 kg/m3 | mass density (298.15 K, 12000 kPa, w1 = 0.5): 799.9 ± 1 kg/m3 | mass density (298.15 K, 12000 kPa, w1 = 0.51): 801 ± 1 kg/m3 | mass density (298.15 K, 12000 kPa, w1 = 0.52): 801.9 ± 1 kg/m3 | mass density (298.15 K, 12000 kPa, w2 = 0.5): 799.9 ± 1 kg/m3 | mass density (298.15 K, 14000 kPa, w1 = 0.48): 799.2 ± 1.1 kg/m3 | mass density (298.15 K, 14000 kPa, w1 = 0.49): 800.1 ± 1.1 kg/m3 | mass density (298.15 K, 14000 kPa, w1 = 0.5): 801.3 ± 1.1 kg/m3 | mass density (298.15 K, 14000 kPa, w1 = 0.51): 802.3 ± 1.1 kg/m3 | mass density (298.15 K, 14000 kPa, w1 = 0.52): 803.2 ± 1.1 kg/m3 | mass density (298.15 K, 14000 kPa, w2 = 0.5): 801.3 ± 1.1 kg/m3 | mass density (298.15 K, 16000 kPa, w1 = 0.48): 800.5 ± 1.1 kg/m3 | mass density (298.15 K, 16000 kPa, w1 = 0.49): 801.3 ± 1.1 kg/m3 | mass density (298.15 K, 16000 kPa, w1 = 0.5): 802.6 ± 1.1 kg/m3 | mass density (298.15 K, 16000 kPa, w1 = 0.51): 803.5 ± 1.1 kg/m3 | mass density (298.15 K, 16000 kPa, w1 = 0.52): 804.5 ± 1.1 kg/m3 | mass density (298.15 K, 16000 kPa, w2 = 0.5): 802.6 ± 1.1 kg/m3 | mass density (298.15 K, 18000 kPa, w1 = 0.48): 801.7 ± 1.1 kg/m3 | mass density (298.15 K, 18000 kPa, w1 = 0.49): 802.6 ± 1.1 kg/m3 | mass density (298.15 K, 18000 kPa, w1 = 0.5): 803.8 ± 1.1 kg/m3 | mass density (298.15 K, 18000 kPa, w1 = 0.51): 804.7 ± 1.1 kg/m3 | mass density (298.15 K, 18000 kPa, w1 = 0.52): 805.7 ± 1.1 kg/m3 | mass density (298.15 K, 18000 kPa, w2 = 0.5): 803.8 ± 1.1 kg/m3 | mass density (298.15 K, 20000 kPa, w1 = 0.48): 803.1 ± 1.1 kg/m3 | mass density (298.15 K, 20000 kPa, w1 = 0.49): 803.9 ± 1.1 kg/m3 | mass density (298.15 K, 20000 kPa, w1 = 0.5): 805.1 ± 1.1 kg/m3 | mass density (298.15 K, 20000 kPa, w1 = 0.51): 806 ± 1.1 kg/m3 | mass density (298.15 K, 20000 kPa, w1 = 0.52): 807 ± 1.1 kg/m3 | mass density (298.15 K, 20000 kPa, w2 = 0.5): 805.1 ± 1.1 kg/m3 | mass density (300.65 K, 100 kPa, w2 = 0.5): 789.9 ± 1 kg/m3 | mass density (300.65 K, 2000 kPa, w2 = 0.5): 791.2 ± 1 kg/m3 | mass density (300.65 K, 4000 kPa, w2 = 0.5): 792.6 ± 1 kg/m3 | mass density (300.65 K, 6000 kPa, w2 = 0.5): 794 ± 1 kg/m3 | mass density (300.65 K, 8000 kPa, w2 = 0.5): 795.4 ± 1 kg/m3 | mass density (300.65 K, 10000 kPa, w2 = 0.5): 796.8 ± 1 kg/m3 | mass density (300.65 K, 12000 kPa, w2 = 0.5): 798.1 ± 1 kg/m3 | mass density (300.65 K, 14000 kPa, w2 = 0.5): 799.4 ± 1.1 kg/m3 | mass density (300.65 K, 16000 kPa, w2 = 0.5): 800.7 ± 1.1 kg/m3 | mass density (300.65 K, 18000 kPa, w2 = 0.5): 802 ± 1.1 kg/m3 | mass density (300.65 K, 20000 kPa, w2 = 0.5): 803.3 ± 1.1 kg/m3 | mass density (303.15 K, 100 kPa, w2 = 0.5): 788.1 ± 1 kg/m3 | mass density (303.15 K, 2000 kPa, w2 = 0.5): 789.6 ± 1 kg/m3 | mass density (303.15 K, 4000 kPa, w2 = 0.5): 791.1 ± 1 kg/m3 | mass density (303.15 K, 6000 kPa, w2 = 0.5): 792.5 ± 1 kg/m3 | mass density (303.15 K, 8000 kPa, w2 = 0.5): 794 ± 1 kg/m3 | mass density (303.15 K, 10000 kPa, w2 = 0.5): 795.4 ± 1 kg/m3 | mass density (303.15 K, 12000 kPa, w2 = 0.5): 796.7 ± 1 kg/m3 | mass density (303.15 K, 14000 kPa, w2 = 0.5): 798.1 ± 1.1 kg/m3 | mass density (303.15 K, 16000 kPa, w2 = 0.5): 799.4 ± 1.1 kg/m3 | mass density (303.15 K, 18000 kPa, w2 = 0.5): 800.8 ± 1.1 kg/m3 | mass density (303.15 K, 20000 kPa, w2 = 0.5): 802 ± 1.1 kg/m3
